{"source": "patent US8178506B2", "about": "“Oligomeric compounds and compositions for use in modulation of small non-coding RNAs” (Regulus Therapeutics Inc., priority 2003, dated 2012)", "note": "In the oligonucleotide strings, read from the 5' end, every base follows the letter of its sugar. An asterisk marks phosphorothioate; unmarked linkages are phosphodiester. Other units and linkages are bracketed, terminal groups are in braces. A string of capitals states the bases alone. e = 2'-O-(2-methoxyethyl) (MOE); [5mC] = 5-methylcytosine; d = 2'-deoxy (DNA)"}
{"tested_on": "IL-12 mRNA", "experiment": "IL-12 mRNA in LPS-activated primary murine macrophages", "type": "cell-based, mouse", "settings": "300 nM oligomeric compound and LPS, no IFN-gamma pretreatment; single experiment; normalized to LPS-treated cells without oligomeric compound", "description": "(§1) To investigate the role of miRNAs in the immune response, oligomeric compounds of the present invention targeting miRNAs were tested for their effects upon lipopolysaccharide (LPS)-activated primary murine macrophages. Macrophages participate in the immune response, for example, in the recognition and phagocytosis of microorganisms, including bacteria. Interferon-gamma (IFN-gamma) released by helper T cells is one type of signal required for macrophage activation, and LPS can serve as an additional stimulus. LPS is a component of the gram-negative bacterial cell wall and acts as an agonist for toll-like receptor 4 (TLR4), the primary LPS receptor expressed by macrophages. The proinflammatory cytokines interleukin-12 (IL-12) and interleukin-6 (IL-6) are induced by LPS treatment of macrophages, thus the expression of the mRNAs encoding these cytokines was used to evaluate the response of macrophages to LPS following treatment with oligomeric compounds targeting miRNAs.\n(§2) Macrophages were isolated as follows. Female C57B1/6 mice (Charles River Laboratories, Wilmington, Mass.) were injected intraperitoneally with 1 ml 3% thioglycollate broth (Sigma-Aldrich, St. Louis, Mo.), and peritoneal macrophage cells were isolated by peritoneal lavage 4 days later. The cells were plated in 96-well plates at 40,000 cells/well for one hour in serum-free RPMI adjusted to contain 10 mM HEPES (Invitrogen Life Technologies, Carlsbad, Calif.), allowed to adhere, then non-adherent cells were washed away and the media was replaced with RPMI containing 10 mM HEPES, 10% FBS and penicillin/streptomycin (“complete” RPMI; Invitrogen Life Technologies, Carlsbad, Calif.).\n(§3) Oligomeric compounds were introduced into the cells using the non-liposomal transfection reagent FuGENE 6 Transfection Reagent (Roche Diagnostics Corp., Indianapolis, Ind.). Oligomeric compound was mixed with FuGENE 6 in 1 mL of serum-free RPMI to achieve a concentration of 10 μL FuGENE per 1000 nM oligomeric compound. The oligomeric compound/FuGENE complex was allowed to form at room temperature for 20 minutes. This mixture was diluted to the desired concentration of oligomeric compound by the addition of the appropriate volume of complete RPMI. The final ratio of FuGENE 6 to oligomeric compound was 1 μL of FuGENE 6 per 100 nM oligomeric compound. A volume of 100 μL of oligomeric compound/FuGENE/RPMI was added to each well of the 96-well plate in which the macrophages were cultured. Each oligomeric compound treatment was repeated in triplicate.\n(§4) Following oligomeric compound treatment, cells were stimultated with LPS. Cells were cultured in the presence of the transfection complex for approximately 24 to 28 hours at 37° C. and 5% CO2, after which the medium containing the transfection complex was removed from the cells, and complete RPMI containing 100 ng/mL LPS (Sigma-Aldrich Corp., St. Louis, Mo.) was added to the cells for a period of approximately 24 hours. Control samples included (1) cells receiving no oligomeric compound, stimulated with LPS and (2) cells receiving neither oligomeric compound nor LPS treatment.\n(§5) In another embodiment, following oligomeric compound treatment, cells were first activated by IFN-gamma, to amplify the response to LPS. Cells were cultured in the presence of the transfection complex for approximately 24 hours at 37° C. and 5% CO2, at which point the medium containing the transfection complex was removed from the cells, and complete RPMI containing 100 ng/mL recombinant mouse IFN-gamma (R&D Systems, Minneapolis, Minn.) was added to the cells. After the 4 hour treatment with INF-gamma, cells were treated with 100 ng/mL LPS for approximately 24 hours. Control samples included (1) cells receiving no oligomeric compound, stimulated with LPS and (2) cells receiving neither oligomeric compound nor LPS treatment. […]", "units": {"IL-12 mRNA expression, −IFN % UTC": "% UTC"}}
{"substance": "341786 (antisense CGCAAGGUCGGUUCUACGGGUG; all 2'-MOE, all phosphorothioate, methylation of C and T or U not given here) [compound 341786]", "IL-12 mRNA expression, −IFN % UTC": 266}
{"tested_on": "IL-12 mRNA", "experiment": "IL-12 mRNA in LPS-activated primary murine macrophages", "type": "cell-based, mouse", "settings": "300 nM oligomeric compound, stimulation with IFN-gamma and LPS; average of 2 experiments; normalized to LPS-treated cells without oligomeric compound", "description": "as §1, §2, §3, §4, §5", "units": {"IL-12 mRNA expression, +IFN % UTC": "% UTC"}}
{"substance": "341786 (antisense CGCAAGGUCGGUUCUACGGGUG; all 2'-MOE, all phosphorothioate, methylation of C and T or U not given here) [compound 341786]", "IL-12 mRNA expression, +IFN % UTC": 99}
{"tested_on": "T47D cells", "experiment": "Caspase-3 activity assay (apoptosis) in T47D cells", "settings": "T47D cells, 200 nM oligomeric compound, 48 hours; experiment of Table 10", "units": {"Fold Increase over UTC (caspase-3 activity, apoptosis)": "fold"}}
{"substance": "328431 (antisense eA*e[5mC]*e[5mC]*eT*e[5mC]*dT*d[5mC]*dA*dG*dG*dA*dA*dG*dA*d[5mC]*eG*eG*eA*e[5mC]*eT) [compound 328431]", "Fold Increase over UTC (caspase-3 activity, apoptosis)": 0.9}
{"substance": "328425 (antisense eG*eA*e[5mC]*e[5mC]*eT*dG*d[5mC]*dT*dA*d[5mC]*dT*d[5mC]*dA*d[5mC]*dT*e[5mC]*eT*e[5mC]*eG*eT) [compound 328425]", "Fold Increase over UTC (caspase-3 activity, apoptosis)": 0.8}
{"substance": "328422 (antisense eG*eA*eG*eG*eA*dT*dG*dT*d[5mC]*dT*dG*dT*dG*dA*dA*eT*eA*eG*e[5mC]*e[5mC]) [compound 328422]", "Fold Increase over UTC (caspase-3 activity, apoptosis)": 1.0}
{"substance": "328657 (eA*eA*eA*eA*eA*dT*dA*dA*dT*d[5mC]*dT*d[5mC]*dT*dG*d[5mC]*eA*e[5mC]*eA*eG*eG; antisense) [compound 328657]", "Fold Increase over UTC (caspase-3 activity, apoptosis)": 0.8}
{"tested_on": "T47D cells", "experiment": "Caspase-3 activity assay (apoptosis) in T47D cells", "settings": "T47D cells, 200 nM oligomeric compound, 48 hours; experiment of Table 11", "units": {"Fold Increase over UTC (caspase-3 activity, apoptosis)": "fold"}}
{"substance": "328655 (eT*eA*e[5mC]*eA*eA*d[5mC]*dG*dG*d[5mC]*dA*dT*dT*dG*dT*d[5mC]*e[5mC]*eT*eG*eA*eA; antisense) [compound 328655]", "Fold Increase over UTC (caspase-3 activity, apoptosis)": 0.7}
{"substance": "328413 (antisense eA*eA*eT*eT*eG*dT*dA*dT*dG*dA*d[5mC]*dA*dT*dT*dA*eA*eA*eT*e[5mC]*eA) [compound 328413]", "Fold Increase over UTC (caspase-3 activity, apoptosis)": 0.8}
{"substance": "328426 (antisense eG*eG*eT*eT*eG*dG*d[5mC]*d[5mC]*dG*d[5mC]*dA*dG*dA*d[5mC]*dT*e[5mC]*eG*eT*eA*e[5mC]) [compound 328426]", "Fold Increase over UTC (caspase-3 activity, apoptosis)": 1.3}
{"substance": "328654 (eT*e[5mC]*e[5mC]*eA*eG*dG*dA*dT*dG*d[5mC]*dA*dA*dA*dA*dG*e[5mC]*eA*e[5mC]*eG*eA; antisense) [compound 328654]", "Fold Increase over UTC (caspase-3 activity, apoptosis)": 1.0}
{"substance": "328638 (e[5mC]*e[5mC]*eG*eA*eG*dG*dG*dT*d[5mC]*dT*dA*dA*d[5mC]*d[5mC]*d[5mC]*eA*eG*e[5mC]*e[5mC]*e[5mC]; antisense) [compound 328638]", "Fold Increase over UTC (caspase-3 activity, apoptosis)": 0.8}
{"substance": "328427 (antisense eG*eA*eT*eG*eT*d[5mC]*dA*d[5mC]*dT*dG*dA*dG*dG*dA*dA*eA*eT*e[5mC]*eA*e[5mC]) [compound 328427]", "Fold Increase over UTC (caspase-3 activity, apoptosis)": 0.8}
{"tested_on": "T47D cells", "experiment": "Caspase-3 activity assay (apoptosis) in T47D cells", "settings": "T47D cells, 200 nM oligomeric compound, 48 hours; experiment of Table 12", "units": {"Fold Increase over UTC (caspase-3 activity, apoptosis)": "fold"}}
{"substance": "328418 (antisense eA*eG*eT*eG*eT*d[5mC]*dT*d[5mC]*dA*dT*d[5mC]*dG*d[5mC]*dA*dA*eA*e[5mC]*eT*eT*eA) [compound 328418]", "Fold Increase over UTC (caspase-3 activity, apoptosis)": 1.0}
{"substance": "328641 (eT*eG*e[5mC]*eT*eG*dA*d[5mC]*dT*dG*d[5mC]*dT*d[5mC]*dG*d[5mC]*d[5mC]*e[5mC]*eT*eT*eG*e[5mC]; antisense) [compound 328641]", "Fold Increase over UTC (caspase-3 activity, apoptosis)": 1.1}
{"substance": "328373 (eG*eG*eG*eA*eA*dG*dG*dA*dT*dT*dG*d[5mC]*d[5mC]*dT*dA*eG*e[5mC]*eA*eG*eT; antisense) [compound 328373]", "Fold Increase over UTC (caspase-3 activity, apoptosis)": 0.9}
{"substance": "328387 (eT*eT*eA*eT*e[5mC]*dG*dG*dA*dA*d[5mC]*dT*dT*d[5mC]*dA*d[5mC]*eA*eG*eA*eG*eA; antisense) [compound 328387]", "Fold Increase over UTC (caspase-3 activity, apoptosis)": 1.4}
{"tested_on": "T47D cells", "experiment": "Caspase-3 activity assay (apoptosis) in T47D cells", "settings": "T47D cells, 200 nM, 48 hours, relative to untreated control"}
{"substance": "328656 (eT*eT*eT*e[5mC]*eA*dG*dG*d[5mC]*dT*d[5mC]*dA*d[5mC]*d[5mC]*dT*d[5mC]*e[5mC]*e[5mC]*e[5mC]*eA*eG; antisense) [compound 328656]", "Fold Increase over UTC (caspase activity)": 1.1}
{"substance": "328433 (antisense e[5mC]*e[5mC]*eT*e[5mC]*e[5mC]*dT*dT*dG*dT*dG*dG*dG*d[5mC]*dA*dA*eA*eA*eT*e[5mC]*e[5mC]) [compound 328433]", "Fold Increase over UTC (caspase activity)": 1.0}
{"substance": "328381 (eA*e[5mC]*eA*eG*eG*dT*dG*dA*dG*d[5mC]*dG*dG*dA*dT*dG*eT*eT*e[5mC]*eT*eG; antisense) [compound 328381]", "Fold Increase over UTC (caspase activity)": 1.1}
{"substance": "328405 (antisense e[5mC]*eT*eG*eA*eA*d[5mC]*dA*dG*dG*dG*dT*dA*dA*dA*dA*eT*e[5mC]*eA*e[5mC]*eT) [compound 328405]", "Fold Increase over UTC (caspase activity)": 1.0}
{"substance": "328391 (eA*eT*eG*eG*eT*dA*dA*dT*dT*dT*d[5mC]*dA*dT*dT*dT*e[5mC]*eA*eG*eG*e[5mC]; antisense) [compound 328391]", "Fold Increase over UTC (caspase activity)": 0.8}
{"substance": "328420 (antisense eG*e[5mC]*eT*eG*eA*dT*dT*dA*d[5mC]*dG*dA*dA*dA*dG*dA*e[5mC]*eA*eG*eG*eA) [compound 328420]", "Fold Increase over UTC (caspase activity)": 1.0}
{"tested_on": "T47D cells", "experiment": "Caspase-3 activity assay (apoptosis) in T47D cells", "settings": "caspase assay, 200 nM; conclusion from Tables 9-12"}
{"substance": "SEQ ID NO 483: gapmer of Tables 9-12 having this SEQ ID NO (antisense eA*eG*e[5mC]*eT*eT*dT*dA*dG*d[5mC]*dT*dG*dG*dG*dT*d[5mC]*eA*eG*eG*eA*e[5mC])", "apoptosis in T47D cells": "induce apoptosis"}
{"substance": "TACAACGGCATTGTCCTGAA (antisense; same sequence listed as MOE 5-10-5 gapmer and as uniform MOE, further chemistry not given here) [ISIS 328655]", "apoptosis in T47D cells": "prevent or have a protective effect from apoptosis"}
{"substance": "GACAAGGTGGGAGCGAGTGG (antisense; same sequence listed as MOE 5-10-5 gapmer and as uniform MOE, further chemistry not given here) [ISIS 328644]", "apoptosis in T47D cells": "prevent or have a protective effect from apoptosis"}
{"substance": "SEQ ID NO 519: gapmer of Tables 9-12 having this SEQ ID NO (antisense eG*eG*eG*e[5mC]*e[5mC]*dT*dA*dT*d[5mC]*d[5mC]*dA*dA*dA*dG*dT*eG*eA*e[5mC]*eA*eG)", "apoptosis in T47D cells": "induce apoptosis"}
{"substance": "SEQ ID NO 520: gapmer of Tables 9-12 having this SEQ ID NO (antisense eT*eA*e[5mC]*e[5mC]*eT*d[5mC]*dT*dG*d[5mC]*dA*dG*dT*dA*dT*dT*e[5mC]*eT*eA*e[5mC]*eA)", "apoptosis in T47D cells": "prevent or have a protective effect from apoptosis"}
{"substance": "ISIS 328381: 5-10-5 2′-MOE gapmer PS; targets mir-214 pri-miRNA (eA*e[5mC]*eA*eG*eG*dT*dG*dA*dG*d[5mC]*dG*dG*dA*dT*dG*eT*eT*e[5mC]*eT*eG)", "apoptosis in T47D cells": "induce apoptosis"}
{"substance": "ACTGATTCAAGAGCTTTGTA (antisense; same sequence listed as MOE 5-10-5 gapmer and as uniform MOE, further chemistry not given here) [ISIS 328648]", "apoptosis in T47D cells": "induce apoptosis"}
{"substance": "SEQ ID NO 502: gapmer of Tables 9-12 having this SEQ ID NO (antisense eG*e[5mC]*eT*eG*eG*d[5mC]*d[5mC]*dT*dG*dA*dT*dA*dG*d[5mC]*d[5mC]*e[5mC]*eT*eT*e[5mC]*eT)", "apoptosis in T47D cells": "induce apoptosis"}
